The values that follow come from patent US20090136566A1, “THERAPEUTIC TRITERPENOIDS” (Regents of the University of Minnesota, priority 2006, published 2009).

Data set [1] relates to P19 stem cells. Briefly: Sulforhodamine B cell proliferation/survival assay, P19 stem cells. To be noted: for % Control (quantity of surviving cells as percentage of DMSO-only control): P19 stem cells, 20 μg/ml, 48 h exposure; for inhibition of P19 cell growth (in words): single dose of 20 μg/ml, 48 hours. The format is cell-based, mouse. As for the experimental part:
FIG. 2 is a graph showing the results of dose-response studies comparing the effectiveness of extracts from four species of birch (B. papyrifera, B. kenaica, B. neoalaskana, and B. pendula) with betulinic acid (BetA) and betulin 3-caffeate (Bet3C). Concentrations of from 2.5 to 20 μg/ml were added to cultures of P19 stem cells for 48 h, and the numbers of surviving cells measured using sulforhodamine B assays.
(§1) Cell Proliferation Measurements: Sulforhodamine B assays (Skehan, P. et al. (1990). J. Natl. Cancer Inst. 82:1107-1112.) were conducted to measure the effects of compounds and extractives of interest on the proliferation of a number of different cell lines. Cell lines used include mouse P19 and human NT2-D1 stem cells, mouse K1735-M2 melanoma cells, human LNCaP and PC-3 prostate cancer cells, and human MCF-7 breast cancer cells. Other cell lines include normal human fibroblast BJ cells, human Caov-3 ovarian cancer cells, human U87 brain glioma cells, human HL-60 acute promyelocytic leukemia cells, human MOLT-4 acute lymphoblastic leukemia cells, human U937 histiocytic lymphoma cells, human MDA-MB-231 breast cancer cells, C2BBe1 cells (a clone of the human colorectal cell line Caco-2), human K562 chronic myeloid leukemia cells, human WM32-11 primary melanoma cells with radial growth phase-like phenotype (early primary melanoma), and human WM793 melanoma cells with vertical growth phase-like phenotype. Cells were seeded at a concentration of 2.5×10^4 cells/ml in 24-well plates, and allowed to recover for 2 days prior to drug addition. Test compounds were prepared in most instances as stock solutions in dimethylsulfoxide (DMSO). Compounds were then added to multiwell plates at final concentrations of […]. Control wells received an equivalent amount of vehicle (DMSO) only. After 1-3 days of incubation, the culture medium was decanted from each plate, and the cells fixed with cold (−10° C.) absolute methanol containing 1% acetic acid for at least 30 minutes. Subsequently, the methanol was decanted, and the plate air-dried. Sulforhodamine B (0.5% in 1% acetic acid) was added to each well, and the plate incubated at 35° C. for 1 hour. Plates were rinsed with 1% acetic acid, air-dried, and the bound dye eluted with 1 ml of 10 mM Tris buffer, pH 10. The absorbance was measured in a spectrophotometer at 540 nm; the amount of dye released is proportional to the number of cells present in the dish, and is a reliable indicator of cell proliferation.
A single dose of 20 μg/ml of either extract, pure compound, or a mixture of compounds, was added to cultures of P19 stem cells, and the growth of the cells measured after 48 hours of treatment (FIG. 1).
(§2) Stock solutions of compounds and extracts were diluted to 2 mg/ml in dimethylsulfoxide (DMSO), and subsequently added to samples at a final concentration of 20 μg/ml (10 μl/ml of a 2 mg/ml stock solution); controls received an equivalent amount of DMSO only (10 μl/ml). After 48 h, samples were fixed with methanol-acetic acid, and the quantity of surviving cells determined by sulforhodamine B staining methods (discussed above). The quantity of surviving cells is expressed as a percentage of the control (DMSO-only) cultures, which was set to 100%. […] Extracts and betulinic acid induce a relatively modest increase in the numbers of dead cells present the cultures (about 10-40%).

A short description of data set [2]: Light absorption analysis by UV-VIS spectrophotometer. Conditions: for Light absorption range (λ, nm): UV-VIS spectrophotometer. The class given is physicochemical. From the text: Sunscreens block the cutaneous absorption of UV radiation at 280-315 nm.
Data set [3] relates to K1735-M2 melanoma cells. The data set can be described thus: Sulforhodamine B cell proliferation assay, K1735-M2 melanoma cells. The class given is cell-based, mouse. Conditions: 2.5-10 mg/ml, 48 h. As for the experimental part: (§3) FIG. 3 is a bar graph showing a comparison of the effects of betulin 3-caffeate on other types of malignant cancer cell lines. P19 stem cells, K1735-M2 melanoma cells and MCF-7 breast cancer cells were treated with […] betulinic acid or betulin-3-caffeate for 48 h and cell quantity determined by sulforhodamine B assays.
as §1, with “After 1-3 days of incubation, the culture medium was decanted from each plate, and the cells fixed with cold (−10° C.) absolute methanol containing 1% acetic acid for at least 30 minutes. Subsequently, the methanol was decanted, and the plate air-dried. Sulforhodamine B (0.5% in 1% acetic acid) was added to each well, and the plate incubated at 35° C. for 1 hour. Plates were rinsed with 1% acetic acid, air-dried, and the bound dye eluted with 1 ml of 10 mM Tris buffer, pH 10.” left out

For data set [4], the system named is MCF-7 breast cancer cells. Briefly: Sulforhodamine B cell proliferation assay, MCF-7 breast cancer cells. The format is cell-based, human. To be noted: 2.5-10 mg/ml, 48 h. As for the experimental part:
as §3
as §1, with “After 1-3 days of incubation, the culture medium was decanted from each plate, and the cells fixed with cold (−10° C.) absolute methanol containing 1% acetic acid for at least 30 minutes. Subsequently, the methanol was decanted, and the plate air-dried. Sulforhodamine B (0.5% in 1% acetic acid) was added to each well, and the plate incubated at 35° C. for 1 hour. Plates were rinsed with 1% acetic acid, air-dried, and the bound dye eluted with 1 ml of 10 mM Tris buffer, pH 10.” left out

For data set [5], the system named is P19 cells. Briefly: P19 cell death by propidium iodide labeling with flow cytometry. The format is cell-based, mouse. To be noted: 48 hours.
From the text: FIG. 4 is a bar graph showing measurements of P19 cell death induced by extracts, betulinic acid (BetA) and betulin 3-caffeate (Bet3C). Because the reduction in cell numbers detected by sulforhodamine B assays could result from either an inhibition of cell proliferation or an induction of cell death (or a combination of both), propidium iodide labeling was used in conjunction with flow cytometry to detect dead and dying cells with compromised plasma membranes.
as §2
In general terms: In flow cytometry, cells or beads pass a laser one at a time.

Entries after “also recorded” stand apart in the source; their conditions may differ.

Consider `O=C(O)CCCCCCC/C=C\CCCCCCCCO` [Sample 13, Cis-18-hydroxyoctadec-9-enoic acid], for which the “% Control (quantity of surviving cells as percentage of DMSO-only control)” value in data set [1] was found to be 65.9%.
For the compound `C=C(C)[C@@H]1CC[C@]2(COC(=O)/C=C/c3ccc(O)c(O)c3)CC[C@]3(C)[C@H](CC[C@@H]4[C@@]5(C)CC[C@H](OC(=O)/C=C/c6ccc(O)c(O)c6)C(C)(C)[C@@H]5CC[C@]43C)[C@@H]12` [betulin-3,28-dicaffeate], the “Light absorption range (λ, nm)” value in data set [2] is 200-350 nm. In addition, the “ε (molar extinction coefficient)” value in data set [2] (at λmax 220) came out at 13978; in data set [2] (at λmax 245), 10018; in data set [2] (at λmax 305), 13341; in data set [2] (at λmax 325) it was 15375.
As to “Treo-hydroxyoctadecanoic acid [Sample 11]”, the “% Control (quantity of surviving cells as percentage of DMSO-only control)” value in data set [1] is listed as 67.3%.
betulin 3,28,30-tricaffeate: in data set [2], the “Light absorption range (λ, nm)” value is reported as 210-360 nm. Also, the “ε (molar extinction coefficient)” value in data set [2] (at λmax 220) came out at 1230; in data set [2] (at λmax 245) it was 882; in data set [2] (at λmax 305), 1174; in data set [2] (at λmax 325) it was 1353.
Consider `C=C(C)[C@@H]1CC[C@]2(C)CC[C@]3(C)[C@H](CC[C@@H]4[C@@]5(C)CC[C@H](O)C(C)(C)[C@@H]5CC[C@]43C)[C@@H]12` [Sample 16, Lupeol], for which, in data set [1], the “% Control (quantity of surviving cells as percentage of DMSO-only control)” value is recorded as 58.9% and the “inhibition of P19 cell growth (in words)” value is listed as “less effective”.
The corresponding values for `C=C(C)[C@@H]1CC[C@]2(CO)CC[C@]3(C)C(CC[C@@H]4[C@@]5(C)CC[C@H](O)C(C)(C)C5CC[C@]43C)C12` (stereo partly drawn) [Sample 17, 3β,28-dihydroxy-lup-20(29)-ene] are 14.8% and “less effective”.
Consider `C=C(C)[C@@H]1CC[C@]2(CO)CC[C@]3(C)[C@H](CC[C@@H]4[C@@]5(C)CC[C@H](OC(=O)/C=C/c6ccc(O)c(O)c6)C(C)(C)[C@@H]5CC[C@]43C)[C@@H]12` [betulin-3-caffeate, (3β)-3-Caffeyloxylup-20(29)-en-28-ol], for which the “Light absorption range (λ, nm)” value in data set [2] is listed as 210-360 nm. The “ε (molar extinction coefficient)” value in data set [2] (at λmax 220) was determined as 2280; in data set [2] (at λmax 245), 1795; in data set [2] (at λmax 305), 2575; in data set [2] (at λmax 325) it was 2865. Moreover, in data set [1] (2.5 to 20 μg/ml, 48 h), the “inhibition of P19 stem cell growth in dose response studies (in words)” value is “more effectively inhibits P19 stem cell growth”. Further, the “% Control (quantity of surviving cells as percentage of DMSO-only control)” value in data set [1] is on record as 1.2%. Moreover, the “potency in inhibiting growth of P19 cells relative to betulinic acid” value in data set [1] (concentrations of 5-10 μg/ml, 48 h) was in the range of 4 to 5 fold. For the same compound, the “inhibition of P19 cell growth (in words)” value is “even more profoundly inhibited cell growth” in data set [1] and “among the most active compounds in inhibiting cell proliferation” in data set [1] (listed as betulin 3-caffeate). Further, the “inhibition of M2 melanoma cell growth (in words)” value in data set [3] was “significantly inhibited”. Besides, the “effectiveness in inhibiting cell growth compared with betulinic acid (in words)” value in data set [3] (K1735-M2 melanoma cells) and in data set [4] (MCF-7 cells) was “more effective in inhibiting cell growth than betulinic acid” throughout. The “inhibition of MCF-7 breast cancer cell growth (in words)” value in data set [4] is listed as “do not appear to be as sensitive”. In data set [5], the “increase in the quantity of dead cells present in the cultures” value is about 200%.
As to `CC1(C)CC[C@]2(C(=O)O)CC[C@]3(C)C(=CC[C@@H]4[C@@]5(C)CC[C@H](O)C(C)(C)[C@@H]5CC[C@]43C)[C@@H]2C1` [Sample 15, Oleanolic acid], in data set [1], the “% Control (quantity of surviving cells as percentage of DMSO-only control)” value is reported as 22.3% and the “inhibition of P19 cell growth (in words)” value is “less effective”.
As for Hydroxyoctadecanoic acid [Sample 10], the “% Control (quantity of surviving cells as percentage of DMSO-only control)” value in data set [1] is reported as 82.6%.
On to `O=C(O)CCCCCCCCCCCCCCCCCCCCC(=O)O` [Sample 9, Docosandioic acid], for which the “% Control (quantity of surviving cells as percentage of DMSO-only control)” value in data set [1] is 61.5%.
As for `C=C(C)[C@@H]1CC[C@]2(COC(=O)/C=C/c3ccc(O)c(O)c3)CC[C@]3(C)[C@H](CC[C@@H]4[C@@]5(C)CC[C@H](O)C(C)(C)[C@@H]5CC[C@]43C)[C@@H]12` [betulin-28-caffeate], the “Light absorption range (λ, nm)” value in data set [2] is on record as 210-360 nm. The “ε (molar extinction coefficient)” value in data set [2] (at λmax 220) is given as 1300; in data set [2] (at λmax 245), 875; in data set [2] (at λmax 305), 1190; in data set [2] (at λmax 325), 1380.
For the compound `C=C(C)[C@@H]1CC[C@]2(C(=O)O)CC[C@]3(C)C(CC[C@@H]4[C@@]5(C)CC[C@H](O)C(C)(C)C5CC[C@]43C)C12` (stereo partly drawn) [Sample 14, 3(β)-hydroxy-20(29)-lupaene-28-oic acid, reference compound], the “% Control (quantity of surviving cells as percentage of DMSO-only control)” value in data set [1] came out at 1.3%. In data set [1] (listed as betulinic acid), the “inhibition of P19 cell growth (in words)” value is given as “even more profoundly inhibited cell growth; also recorded: among the most active compounds in inhibiting cell proliferation”. Moreover, the “inhibition of M2 melanoma cell growth (in words)” value in data set [3] is recorded as “significantly inhibited”. For the same compound, in data set [4], the “inhibition of MCF-7 breast cancer cell growth (in words)” value is on record as “do not appear to be as sensitive”. Also, in data set [5], the “increase in the quantity of dead cells present in the cultures” value is 10-40%.
For the compound `O=C(O)CCCCCCCCCCCCCCCCCCCCCO` [Sample 12, 22-hydroxydocosanoic acid], the “% Control (quantity of surviving cells as percentage of DMSO-only control)” value in data set [1] is reported as 51.4%.
